In brackets after ≈: the same amount, converted by molar mass.
How the values were obtained:
Mus musculus [1] = species on record: Mus musculus; assay: Antihyperglycemic activity in mouse assessed as reduction in serum glucose ratio after 7 days; format: functional; design: scale not given: the % may be the effect or the level left; settings: time 7 day
[2] = Inhibition of porcine alpha amylase; design: species or system Sus scrofa
Mus musculus [3] = species on record: Mus musculus; assay: Antihyperglycemic activity in mouse assessed as reduction in serum glucose ratio after 2 hrs; format: functional; design: scale not given: the % may be the effect or the level left
Alpha-glucosidase = Alpha-glucosidase (Saccharomyces cerevisiae S288c, UniProt P53341+P38158+P07265); assay: Inhibition of Saccharomyces cerevisiae alpha glucosidase; format: protein assay
Mus musculus [4] = assay: Antihyperglycemic activity in db/db mouse assessed as decrease in blood glucose level at 2 mg/kg; format: functional; design: scale not given: the % may be the effect or the level left
Mus musculus [5] = assay: Antihyperglycemic activity in db/db mouse assessed as decrease in blood glucose level at 100 mg/kg; format: functional; design: scale not given: the % may be the effect or the level left
Mus musculus [6] = assay: Antihyperglycemic activity in db/db mouse assessed as decrease in blood glucose level at 20 mg/kg; format: functional; design: scale not given: the % may be the effect or the level left
Liver carboxylesterase 1 = Liver carboxylesterase 1 (Homo sapiens, UniProt P23141); assay: Inhibition of human CE1
[7] = Selectivity index, ratio of IC50 mouse […] 3T3 cells to MIC for Mycobacterium tuberculosis H37Rv; format: toxicity; settings: NIH 3T3 cells, read-out: Selectivity Index
[8] = system: Mycobacterium tuberculosis; assay: Antibacterial activity against Mycobacterium tuberculosis H37Rv; format: functional
[9] = target: Aldo-keto reductase family 1 member B1 (Homo sapiens, UniProt P15121); assay: Inhibition of aldose reductase (unknown origin)

Chain of Liver carboxylesterase 1 (P23141 whole entry): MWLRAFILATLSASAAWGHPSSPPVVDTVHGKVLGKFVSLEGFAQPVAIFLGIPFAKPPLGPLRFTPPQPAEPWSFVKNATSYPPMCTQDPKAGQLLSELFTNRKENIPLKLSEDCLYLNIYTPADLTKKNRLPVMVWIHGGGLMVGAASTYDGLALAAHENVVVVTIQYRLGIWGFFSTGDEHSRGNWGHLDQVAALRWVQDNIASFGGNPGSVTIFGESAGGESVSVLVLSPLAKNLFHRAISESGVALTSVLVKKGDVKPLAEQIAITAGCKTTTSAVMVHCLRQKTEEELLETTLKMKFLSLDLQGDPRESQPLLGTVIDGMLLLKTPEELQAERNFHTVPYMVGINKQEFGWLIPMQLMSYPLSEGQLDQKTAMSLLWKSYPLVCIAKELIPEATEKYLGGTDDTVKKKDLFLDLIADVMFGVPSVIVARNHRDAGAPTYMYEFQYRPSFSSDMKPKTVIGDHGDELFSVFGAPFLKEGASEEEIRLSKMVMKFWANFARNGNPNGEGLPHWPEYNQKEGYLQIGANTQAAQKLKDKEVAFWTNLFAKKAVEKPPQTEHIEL

Cc1c(C(=O)CS(=O)(=O)c2ccccc2)c(=O)n(-c2ccccc2)n1C
Activity (Mus musculus [1]): 13.34% | IC50 [2]: 14.7 µM | Activity (Mus musculus [3]): 32.16% | IC50 (Alpha-glucosidase): 63.66 µM

CSc1ccc(Cc2c(C(F)(F)F)n[nH]c2O)cc1
Activity (Mus musculus [4]): 30% | Activity (Mus musculus [5]): 68% | Activity (Mus musculus [6]): 57%

Cc1ccc(C2=NN(c3ccccc3)C(=O)C23N=C([S@@+](C)[O-])N(C(=O)OC(C)(C)C)[C@]32C(=O)N(Cc3ccccc3)c3ccccc32)cc1 (stereo partly specified)
IC50 (Liver carboxylesterase 1): 0.39 µM

CC1=NN(NCC(=O)c2ccccc2)C(=O)/C1=N/Nn1c(-c2ccccc2)nc2ccccc2c1=O
selectivity ratio [7]: 26.4 | MIC [8]: 3.11 µg/mL (≈ 6.49 µM)

NC(=S)N1N=C(N)/C(=C\c2cc(-c3ccc(Cl)cc3)nn2-c2ccccc2)C1=O
IC50 [9]: 6.3 µM

Source: ChEMBL document CHEMBL5233210, “Pyrazolone structural motif in medicinal chemistry: Retrospect and prospect” (Eur J Med Chem, 2020)
